Changes are numbered by the printed parent chain. Several values for one entry are separate records, joined by “and”; a condition that tells them apart may be missing. Equal entries are not always repeated. Marks after values point to notes of the source that are not given here.
Columns and labels:
[1] = molecular target: T1, E129D mutant 5-HT3 receptor (mouse 5-HT3A subunit) (Mus musculus, UniProt P23979, E129D); test: Agonist-induced currents, voltage clamp electrophysiology in Xenopus oocytes; format: cell-based
T1 sequence (P23979 24-483 isoform P23979-2 E129D limits assumed): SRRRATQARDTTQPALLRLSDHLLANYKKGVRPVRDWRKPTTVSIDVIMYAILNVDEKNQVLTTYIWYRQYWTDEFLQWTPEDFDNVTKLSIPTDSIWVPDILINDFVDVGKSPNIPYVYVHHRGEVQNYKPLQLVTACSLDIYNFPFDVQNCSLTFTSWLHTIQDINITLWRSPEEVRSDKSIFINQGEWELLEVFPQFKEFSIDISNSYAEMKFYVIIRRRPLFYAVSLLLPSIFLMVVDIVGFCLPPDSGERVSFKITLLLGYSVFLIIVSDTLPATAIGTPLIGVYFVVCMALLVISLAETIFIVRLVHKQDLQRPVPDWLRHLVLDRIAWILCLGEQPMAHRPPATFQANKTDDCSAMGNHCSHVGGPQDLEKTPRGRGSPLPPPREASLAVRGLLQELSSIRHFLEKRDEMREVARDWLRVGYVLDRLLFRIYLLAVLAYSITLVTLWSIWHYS

[2] = molecular target: T2, E129N mutant 5-HT3 receptor (mouse 5-HT3A subunit) (Mus musculus, UniProt P23979, E129N); test: as above; format: cell-based
T2 sequence (P23979 24-483 isoform P23979-2 E129N limits assumed): T1 sequence (P23979 24-483 isoform P23979-2 E129D limits assumed) with D106N

[3] = molecular target: T3, N128A mutant 5-HT3 receptor (mouse 5-HT3A subunit) (Mus musculus, UniProt P23979, N128A); test: as above; format: cell-based; settings: for nH (Hill coefficient): N128A
T3 sequence (P23979 24-483 isoform P23979-2 N128A limits assumed): T1 sequence (P23979 24-483 isoform P23979-2 E129D limits assumed) with N105A, D106E

[4] = molecular target: T4, WT 5-HT3 receptor (mouse 5-HT3A subunit) (Mus musculus, UniProt P23979); test: as above; format: cell-based; settings: for nH (Hill coefficient): WT; for EC50: oocytes, holding potential −60 mV
T4 sequence (P23979 24-483 isoform P23979-2 limits assumed): T1 sequence (P23979 24-483 isoform P23979-2 E129D limits assumed) with D106E

[5] = molecular target: T5, N128E mutant 5-HT3 receptor (mouse 5-HT3A subunit) (Mus musculus, UniProt P23979, N128E); test: as above; format: cell-based; settings: for nH (Hill coefficient): N128E
T5 sequence (P23979 24-483 isoform P23979-2 N128E limits assumed): T1 sequence (P23979 24-483 isoform P23979-2 E129D limits assumed) with N105E, D106E

[6] = molecular target: T6, N128D mutant 5-HT3 receptor (mouse 5-HT3A subunit) (Mus musculus, UniProt P23979, N128D); test: as above; format: cell-based
T6 sequence (P23979 24-483 isoform P23979-2 N128D limits assumed): T1 sequence (P23979 24-483 isoform P23979-2 E129D limits assumed) with N105D, D106E

[7] = molecular target: T7, N128Q mutant 5-HT3 receptor (mouse 5-HT3A subunit) (Mus musculus, UniProt P23979, N128Q); test: as above; format: cell-based; settings: for nH (Hill coefficient): N128Q
T7 sequence (P23979 24-483 isoform P23979-2 N128Q limits assumed): T1 sequence (P23979 24-483 isoform P23979-2 E129D limits assumed) with N105Q, D106E

[8] = molecular target: E129K mutant 5-HT3 receptor (mouse 5-HT3A subunit) (Mus musculus, UniProt P23979, E129K); test: Single-point [3H]granisetron binding to solubilized oocyte preparations; settings: 0.5 nM [3H]granisetron
[9] = molecular target: E129A mutant 5-HT3 receptor (mouse 5-HT3A subunit) (Mus musculus, UniProt P23979, E129A); test: as above; settings: 0.5 nM [3H]granisetron
[10] = test system: Glu129 mutant 5-HT3 receptors; settings: any Glu129 mutant receptor in HEK cells; concentrations up to 20 nM; cited from earlier work
[11] = molecular target: E129G mutant 5-HT3 receptor (mouse 5-HT3A subunit) (Mus musculus, UniProt P23979, E129G); test: Single-point [3H]granisetron binding to solubilized oocyte preparations; settings: 0.5 nM [3H]granisetron
[12] = test system: Asn128 mutant 5-HT3 receptors; settings: Asn128 mutant receptors in HEK cells; cited from earlier work
[13] = molecular target: T1, E129D mutant 5-HT3 receptor (mouse 5-HT3A subunit); test: Granisetron inhibition of 5-HT-induced responses in oocytes; format: cell-based; settings: EC50 concentration of 5-HT
[14] = molecular target: T2, E129N mutant 5-HT3 receptor (mouse 5-HT3A subunit); test: as above; format: cell-based; settings: 100 nM granisetron, EC50 concentration of 5-HT

Chain of E129K mutant 5-HT3 receptor (mouse 5-HT3A subunit) (P23979 24-483 isoform P23979-2 E129K limits assumed): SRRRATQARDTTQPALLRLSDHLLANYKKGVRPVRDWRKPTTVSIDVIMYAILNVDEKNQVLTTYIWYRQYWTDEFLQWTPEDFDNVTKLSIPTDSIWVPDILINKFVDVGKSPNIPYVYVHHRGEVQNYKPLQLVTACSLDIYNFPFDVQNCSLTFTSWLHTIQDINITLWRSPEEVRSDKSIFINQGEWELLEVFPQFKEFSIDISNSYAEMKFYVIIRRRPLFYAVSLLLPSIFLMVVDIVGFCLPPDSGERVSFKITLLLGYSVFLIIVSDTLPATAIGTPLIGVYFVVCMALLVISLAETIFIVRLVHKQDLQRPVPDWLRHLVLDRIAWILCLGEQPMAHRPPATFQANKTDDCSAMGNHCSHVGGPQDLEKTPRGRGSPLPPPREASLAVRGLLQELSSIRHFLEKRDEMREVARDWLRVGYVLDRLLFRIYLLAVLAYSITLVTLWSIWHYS
Chain of E129G mutant 5-HT3 receptor (mouse 5-HT3A subunit) (P23979 24-483 isoform P23979-2 E129G limits assumed): as the sequence (P23979 24-483 isoform P23979-2 E129K limits assumed) above, with K106G counted along it
Chain of E129A mutant 5-HT3 receptor (mouse 5-HT3A subunit) (P23979 24-489 E129A): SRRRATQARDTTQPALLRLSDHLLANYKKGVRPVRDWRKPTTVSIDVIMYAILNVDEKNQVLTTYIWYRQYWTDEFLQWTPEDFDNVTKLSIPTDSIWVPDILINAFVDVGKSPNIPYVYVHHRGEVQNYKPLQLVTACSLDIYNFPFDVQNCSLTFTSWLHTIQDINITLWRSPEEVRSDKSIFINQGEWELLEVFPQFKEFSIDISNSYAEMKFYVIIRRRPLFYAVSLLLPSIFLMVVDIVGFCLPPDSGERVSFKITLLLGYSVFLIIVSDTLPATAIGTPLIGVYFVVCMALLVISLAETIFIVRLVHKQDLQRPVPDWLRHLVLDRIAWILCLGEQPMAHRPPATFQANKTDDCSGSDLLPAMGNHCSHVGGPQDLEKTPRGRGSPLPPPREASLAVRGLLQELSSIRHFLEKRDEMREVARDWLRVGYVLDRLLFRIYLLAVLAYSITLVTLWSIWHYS

Structure (SMILES)	EC50 [3] [µM]	nH (Hill coefficient) [3]	nH (Hill coefficient) [4]	EC50 ([4]; pEC50, WT) [µM]	EC50 [5] [µM]	nH (Hill coefficient) [5]	EC50 [7] [µM]	nH (Hill coefficient) [7]	other results
NCCc1c[nH]c2ccc(F)cc12 [5-FT, 5-fluorotryptamine]	10	2.34 ± 0.75	2.71 ± 0.24	17.8	13.8	1.97 ± 0.18	94	2.38 ± 0.58	EC50 [1]: 8.3 µM; nH (Hill coefficient) ([1]; E129D): 1.95 ± 0.30; EC50 [2]: 11.7 µM; nH (Hill coefficient) ([2]; E129N): 1.25 ± 0.13 ^b; EC50 [6]: 17.8 µM; nH (Hill coefficient) ([6]; N128D): 2.61 ± 0.28
CN1C2CCCC1CC(NC(=O)c1nn(C)c3ccccc13)C2 (stereo not shown) [[^3H]granisetron]	–	–	–	–	–	–	–	–	specific radioligand binding [8]: No specific radioligand binding; specific radioligand binding [9]: No specific radioligand binding; specific binding [10]: no specific binding; specific radioligand binding [11]: No specific radioligand binding; binding affinity vs WT [12]: no significant differences
CN1C2CCCC1CC(NC(=O)c1nn(C)c3ccccc13)C2 (stereo not shown) [granisetron]	–	–	–	–	–	–	–	–	block of the response to 5-HT ([13]; 10 nM granisetron): 80 ± 5% and ~80%; block of the response to 5-HT ([13]; 100 nM granisetron): 96 ± 3%; block of the response to 5-HT [14]: did not block
NCCc1c[nH]c2ccccc12 [tryptamine]	91	2.90 ± 0.68	2.86 ± 0.14	117	59	2.90 ± 0.53	240	3.10 ± 0.39	EC50 ([4]; EC50, WT): 120 µM

— PMC2649372 (Biochemistry, 2008)
